According to patent US20180111893A1, “POLYCATIONIC AMPHIPHILES AND POLYMERS THEREOF AS ANTIMICROBIAL AGENTS AND METHODS USING SAME” (Temple University-Of The Commonwealth System of Higher …, priority 2015, published 2018):

How the values were obtained:
Test in all cases: Minimum inhibitory concentration (MIC)
Format in all cases: cell-based
[1] = test system: Pseudomonas aeruginosa (PAO1); details: Table 6
Experimental: (§1) As used herein, the term “minimum inhibitory concentration (MIC)” refers to the lowest concentration of an antimicrobial agent that will inhibit the visible growth of a microorganism after overnight incubation. MIC values against bacteria, for example, the Gram-positive Staphylococcus aureus and Enterococcus faecalis and the Gram-negative Escherichia coli and Pseudomonas aeruginosa were determined by standard methods. See also P. A. Wayne, Methods for Dilution Antimicrobial Tests for Bacteria that Grow Aerobically; Approved Standard, Ninth Edition, 2012, CLSI Document M07-A9, Vol. 32 No. 2, which is incorporated by reference herein in its entirety.
(§2) Compounds were serially diluted two-fold from a 10% DMSO/aqueous stock solution to yield twelve test concentrations. Overnight S. aureus, E. faecalis, E. coli, P. aeruginosa, CA-MRSA, and HA-MRSA cultures diluted to ca. 10^6 cfu/mL in Mueller-Hinton media and 100 μL were inoculated into each well of a U-bottom 96-well plate (BD Biosciences, BD351177) containing 100 μL of compound solution. Plates were incubated statically at 37° C. for 72 hours upon which time wells were evaluated visually for bacterial growth. The MIC was determined as the lowest concentration of compound resulting in no bacterial growth visible to the naked eye, based on the majority of three independent experiments. Positive and negative DMSO/aqueous solution and media controls were conducted for each trial. See Peng et al., 2011, Chem. Comm. 47:4896-4898.
as §2, with “trial.” for “trial. See Peng et al., 2011, Chem. Comm. 47:4896-4898.”

[2] = test system: Enterococcus faecalis (OG1RF); details: Table 6
Experimental: as §1, §2
as §2, with “trial.” for “trial. See Peng et al., 2011, Chem. Comm. 47:4896-4898.”

[3] = test system: hospital-acquired methicillin-resistant Staphylococcus aureus HA-MRSA (ATCC 33591); details: Table 6
Experimental: as §1, §2
as §2, with “trial.” for “trial. See Peng et al., 2011, Chem. Comm. 47:4896-4898.”

[4] = test system: Escherichia coli (MC4100); details: Table 6
Experimental: as §1, §2
as §2, with “trial.” for “trial. See Peng et al., 2011, Chem. Comm. 47:4896-4898.”

[5] = test system: community-acquired methicillin-resistant Staphylococcus aureus CA-MRSA (USA300-0114); details: for MIC CA-MRSA: Table 6; for difference in MIC of monoQAC versus triscationic analog against CA-MRSA: monocationic n,0,0 vs triscationic n,1,1; for potency against CA-MRSA: dye-based monoQACs
Experimental: as §1, §2
as §2, with “trial.” for “trial. See Peng et al., 2011, Chem. Comm. 47:4896-4898.”

[6] = test system: Staphylococcus aureus (SA; MSSA SH1000); details: Table 6
Experimental: as §1, §2
as §2, with “trial.” for “trial. See Peng et al., 2011, Chem. Comm. 47:4896-4898.”

| SMILES | MIC PA [1] | MIC EF [2] | MIC HA-MRSA [3] | MIC EC [4] | MIC CA-MRSA [5] | MIC SA [6] | MIC against CA-MRSA ([5]; dye-based QACs) | difference in MIC of monoQAC versus triscationic analog against CA-MRSA [5] | potency against CA-MRSA ([5]; in words) | increase in MIC against CA-MRSA compared to SA ([5]; dye-based QACs, bacteria with vs without efflux pumps) | difference in MIC/activity between SA and CA-MRSA ([5]; dye-based QACs, in words) |
| --- | --- | --- | --- | --- | --- | --- | --- | --- | --- | --- | --- |
| CCCCCCCCCCC[N+](C)(C)CCC[N+](CCC[N+](C)(C)CCCCCCCCCCC)(CCC[N+](C)(C)CCCCCCCCCCC)Cc1ccccc1 [sT-11,11,11,Bn] | 1 µM | 0.5 µM | ≤0.25 µM | 0.5 µM | ≤0.25 µM | 0.25 µM | – | – | – | – | – |
| CCCCCCCCCCCCCCCC[N+](CC)(CC)c1ccc(N(c2ccc(N(CC)CC)cc2)c2ccc(N(CC)CC)cc2)cc1 [TET-16,0,0] | – | – | – | – | – | – | 250 µM | 500 × | – | – | – |
| CCCCCCCCCC[N+](C)(C)c1ccc(C(c2ccccc2)c2ccc(N(C)C)cc2)cc1 (centres unmarked) [LMG-10,0] | – | – | – | – | – | – | – | – | quite potent | – | – |
| C=CC[N+](CCC[N+](C)(C)CCCCCCCC)(CCC[N+](C)(C)CCCCCCCC)CCC[N+](C)(C)CCCCCCCC [sT-8,8,8,3A] | 125 µM | 16 µM | 8 µM | 4 µM | 1 µM | 1 µM | – | – | – | – | – |
| CCCCCCCC[N+](C)(C)CCC[N+](C)(CCC[N+](C)(C)CCCCCCCC)CCC[N+](C)(C)CCCCCCCC [sT-8,8,8,1] | 250 µM | 16 µM | 16 µM | 4 µM | 1 µM | 0.5 µM | – | – | – | – | – |
| C=CC[N+](CCC[N+](C)(C)CCCCCCCCCC)(CCC[N+](C)(C)CCCCCCCCCC)CCC[N+](C)(C)CCCCCCCCCC [sT-10,10,10,3A] | 1 µM | 0.5 µM | 0.5 µM | 0.5 µM | 0.25 µM | 0.5 µM | – | – | – | – | – |
| CCCCCCCCCC[N+](C)(C)c1ccc(C(c2ccc([N+](C)(C)C)cc2)c2ccc([N+](C)(C)C)cc2)cc1 [LCV-10,1,1] | – | – | – | – | – | – | – | – | – | 32 fold | – |
| CCCCCCCCCCC[N+](C)(C)CCCN(CCC[N+](C)(C)CCCCCCCCCCC)CCC[N+](C)(C)CCCCCCCCCCC [sT-11,11,11,0] | 1 µM | 0.5 µM | 0.5 µM | 0.5 µM | 0.5 µM | 0.5 µM | – | – | – | – | – |
| C=CC[N+](CCC[N+](C)(C)CCCCCCCCCCCC)(CCC[N+](C)(C)CCCCCCCCCCCC)CCC[N+](C)(C)CCCCCCCCCCCC [sT-12,12,12,3A] | 2 µM | 0.5 µM | 0.5 µM | 0.5 µM | ≤0.25 µM | 1 µM | – | – | – | – | – |
| C=CC[N+](CCC[N+](C)(C)CCCCCCCCCCC)(CCC[N+](C)(C)CCCCCCCCCCC)CCC[N+](C)(C)CCCCCCCCCCC [sT-11,11,11,3A] | 1 µM | 0.5 µM | 1 µM | 0.5 µM | 0.5 µM | 0.5 µM | – | – | – | – | – |
| CCCCCCCCCC[N+](C)(C)CCCN(CCC[N+](C)(C)CCCCCCCCCC)CCC[N+](C)(C)CCCCCCCCCC [sT-10,10,10,0] | 2 µM | 0.5 µM | 0.5 µM | 1 µM | 0.5 µM | 0.5 µM | – | – | – | – | – |
| CCCCCCCCCCCC[N+](C)(C)CCC[N+](C)(CCC[N+](C)(C)CCCCCCCCCCCC)CCC[N+](C)(C)CCCCCCCCCCCC [sT-12,12,12,1] | 4 µM | 1 µM | 2 µM | 1 µM | 0.5 µM | 1 µM | – | – | – | – | – |
| CCCCCCCCCCCCCCCCCC[N+](C)(C)CCCN(CCC[N+](C)(C)CCCCCCCCCCCCCCCCCC)CCC[N+](C)(C)CCCCCCCCCCCCCCCCCC [sT-18,18,18,0] | 63 µM | 16 µM | 32 µM | 32 µM | 4 µM | 8 µM | – | – | – | – | – |
| C=CC[N+](CCC[N+](C)(C)CCCCCCCCCCCCCCCCCC)(CCC[N+](C)(C)CCCCCCCCCCCCCCCCCC)CCC[N+](C)(C)CCCCCCCCCCCCCCCCCC [sT-18,18,18,3A] | 125 µM | 32 µM | 16 µM | 32 µM | 2 µM | 2 µM | – | – | – | – | – |
| C=CC[N+](CCC[N+](C)(C)CCCCCCCCCCCCCC)(CCC[N+](C)(C)CCCCCCCCCCCCCC)CCC[N+](C)(C)CCCCCCCCCCCCCC [sT-14,14,14,3A] | 32 µM | 2 µM | 2 µM | 4 µM | 2 µM | 2 µM | – | – | – | – | – |
| C=CC[N+](CCC[N+](C)(C)CCCCCCCCCCCCCCCC)(CCC[N+](C)(C)CCCCCCCCCCCCCCCC)CCC[N+](C)(C)CCCCCCCCCCCCCCCC [sT-16,16,16,3A] | 63 µM | 8 µM | 16 µM | 16 µM | 4 µM | 4 µM | – | – | – | – | – |
| CCCCCCCCCCCCC[N+](C)(C)CCC[N+](C)(CCC[N+](C)(C)CCCCCCCCCCCCC)CCC[N+](C)(C)CCCCCCCCCCCCC [sT-13,13,13,1] | 4 µM | 1 µM | 1 µM | 1 µM | 0.5 µM | 2 µM | – | – | – | – | – |
| CCCCCCCCCCCCCCCC[N+](CC)(CC)c1ccc(N(c2ccc([N+](C)(CC)CC)cc2)c2ccc([N+](C)(CC)CC)cc2)cc1 [TET-16,1,1] | – | – | – | – | – | – | 0.5 µM | – | – | – | no difference in activity |
| CCCCCCCCCCCCCCCCCC[N+](C)(C)c1ccc(C(c2ccc(N(C)C)cc2)c2ccc(N(C)C)cc2)cc1 [LCV-18,0,0] | – | – | – | – | – | – | – | same differential | – | – | – |
| CCCCCCCCCCC[N+](C)(C)c1ccc(C(c2ccccc2)c2ccc(N(C)C)cc2)cc1 (centres unmarked) [LMG-11,0] | – | – | – | – | – | – | – | – | quite potent | – | – |
